How the values were obtained:
Assay in all cases: relative viability (nuclei count vs DMSO), 5 days (fraction); higher = more cells survive
Sulindac + Trametinib = compound: CC1=C(CC(=O)O)c2cc(F)ccc2/C1=C\c1ccc([S+](C)[O-])cc1 [Sulindac] + CC(=O)Nc1cccc(-n2c(=O)n(C3CC3)c(=O)c3c(Nc4ccc(I)cc4F)n(C)c(=O)c(C)c32)c1 [Trametinib] (partner 0.02 µM)
Method in brief: (§1)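 Five library-drug doses in √10 steps were combined with a fixed anchor-drug dose, or a single drug was given alone, by pin tool to lung cancer cell lines in 1536-well plates the day after seeding. Nuclei were stained and counted after 5 days. Relative viability is the nuclei count in treated wells over that in vehicle wells, taken as the median of duplicate plates.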

Sulindac + Lapatinib = compound: CC1=C(CC(=O)O)c2cc(F)ccc2/C1=C\c1ccc([S+](C)[O-])cc1 [Sulindac] + CS(=O)(=O)CCNCc1ccc(-c2ccc3ncnc(Nc4ccc(OCc5cccc(F)c5)c(Cl)c4)c3c2)o1 [Lapatinib] (partner 2 µM)
Method in brief: as §1

Sulindac + Olaparib = compound: CC1=C(CC(=O)O)c2cc(F)ccc2/C1=C\c1ccc([S+](C)[O-])cc1 [Sulindac] + O=C(c1cc(Cc2n[nH]c(=O)c3ccccc23)ccc1F)N1CCN(C(=O)C2CC2)CC1 [Olaparib] (partner 8 µM)
Method in brief: as §1

[1] = compound: CN[C@@H]1C[C@H]2O[C@@](C)([C@@H]1OC)n1c3ccccc3c3c4c(c5c6ccccc6n2c5c31)C(=O)NC4 [Staurosporine] + C[C@@H](Oc1cc(-c2cnn(C3CCNCC3)c2)cnc1N)c1c(Cl)ccc(F)c1Cl [Crizotinib] (partner 1 µM)
Method in brief: as §1

Question: What does the source list for UMC-11?
Answer: relative viability (Sulindac + Trametinib; first compound 0.08 µM): 0.733; relative viability (Sulindac + Trametinib; first compound 0.253 µM): 0.764; relative viability (Sulindac + Trametinib; first compound 0.8 µM): 0.679; relative viability (Sulindac + Trametinib; first compound 2.53 µM): 0.654; relative viability (Sulindac + Trametinib; first compound 8 µM): 0.757; relative viability (Sulindac + Lapatinib; first compound 0.08 µM): 1.16; relative viability (Sulindac + Lapatinib; first compound 0.253 µM): 1.12; relative viability (Sulindac + Lapatinib; first compound 0.8 µM): 0.758; relative viability (Sulindac + Lapatinib; first compound 2.53 µM): 0.946; relative viability (Sulindac + Lapatinib; first compound 8 µM): 1.15; relative viability (Sulindac + Olaparib; first compound 0.08 µM): 0.463; relative viability (Sulindac + Olaparib; first compound 0.253 µM): 0.342; relative viability (Sulindac + Olaparib; first compound 0.8 µM): 0.42; relative viability (Sulindac + Olaparib; first compound 2.53 µM): 0.339; relative viability (Sulindac + Olaparib; first compound 8 µM): 0.332; relative viability ([1]; first compound 0.005 µM): 0.544; relative viability ([1]; first compound 0.01581 µM): 0.406; relative viability ([1]; first compound 0.05 µM): 0.207; relative viability ([1]; first compound 0.1581 µM): 0.0703; relative viability ([1]; first compound 0.5 µM): 0.0402

Reference: the supplement of paper PMC10307832
